Holding throughout (experiment): AK assay 384-well format, Prestwick library screening
The subject of one assay is E. coli. The class given is cell-based, Escherichia coli. Conditions: 50 μM final drug concentration; for fold induction at 50 µM: Escherichia coli, 3 h.
The next assay concerns E. faecium. The class given is cell-based, Enterococcus faecium. Conditions: 50 μM final drug concentration; for fold induction at 50 µM: Enterococcus faecium, 3 h.
The next assay relates to P. aeruginosa. Type of assay: cell-based, Pseudomonas aeruginosa. The note with it: 50 μM final drug concentration; for fold induction at 50 µM: Pseudomonas aeruginosa, 3 h.
The subject of assay [1] is S. aureus strain USA300-0114. The class given is cell-based, Staphylococcus aureus. Conditions: 50 μM final drug concentration; for fold induction at 50 µM: Staphylococcus aureus, USA300, 3 h.
The next assay concerns E. cloacae. The class given is cell-based, Enterobacter cloacae. The note with it: 50 μM final drug concentration; for fold induction at 50 µM: Enterobacter cloacae, 3 h.
The next assay relates to K. pneumoniae. Type of assay: cell-based, Klebsiella pneumoniae. Conditions: 50 μM final drug concentration; for fold induction at 50 µM: Klebsiella pneumoniae, 3 h.
The test system of assay [2] is A. baumannii strain 98-37-09. Type of assay: cell-based, Acinetobacter baumannii. Conditions: 50 μM final drug concentration; for fold induction at 50 µM: Acinetobacter baumannii, 983709, 3 h.
Where [3] appears, read: planktonic, cutoff for positive 3-fold increase, read-out: AK-based Prestwick Library Screening Results, E. faecium (fold increase in extracellular AK activity).
Where [4] appears, read: planktonic, cutoff for positive 3-fold increase, read-out: AK-based Prestwick Library Screening Results, P. aeruginosa (fold increase in extracellular AK activity).
[5] abbreviates: planktonic, cutoff for positive 3-fold increase, read-out: AK-based Prestwick Library Screening Results, S. aureus (fold increase in extracellular AK activity).
Setting [6] is: planktonic, cutoff for positive 3-fold increase, read-out: AK-based Prestwick Library Screening Results, E. cloacae (fold increase in extracellular AK activity).
Where [7] appears, read: planktonic, cutoff for positive 3-fold increase, read-out: AK-based Prestwick Library Screening Results, K. pneumoniae (fold increase in extracellular AK activity).
Setting [8] is: planktonic, cutoff for positive 3-fold increase, read-out: AK-based Prestwick Library Screening Results, A. baumannii (fold increase in extracellular AK activity).
Setting [9] is: 384-well format, cutoff for positive-scoring molecules 3-fold increase, read-out: AK-based Prestwick Library Screening Results, E. coli (increase in extracellular AK activity).
The mark [10] stands for this setting: 384-well format, cutoff for positive-scoring molecules 3-fold increase, read-out: AK-based Prestwick Library Screening Results, E. faecium (increase in extracellular AK activity).
Setting [11] is: 384-well format, cutoff for positive-scoring molecules 3-fold increase, read-out: AK-based Prestwick Library Screening Results, P. aeruginosa (increase in extracellular AK activity).
[12] abbreviates: 384-well format, cutoff for positive-scoring molecules 3-fold increase, read-out: AK-based Prestwick Library Screening Results, S. aureus (increase in extracellular AK activity).
Where [13] appears, read: 384-well format, cutoff for positive-scoring molecules 3-fold increase, read-out: AK-based Prestwick Library Screening Results, E. cloacae (increase in extracellular AK activity).
Setting [14] is: 384-well format, cutoff for positive-scoring molecules 3-fold increase, read-out: AK-based Prestwick Library Screening Results, K. pneumoniae (increase in extracellular AK activity).
Setting [15] is: 384-well format, cutoff for positive-scoring molecules 3-fold increase, read-out: AK-based Prestwick Library Screening Results, A. baumannii (increase in extracellular AK activity).

Where a name gives a salt, the structure may show the parent alone. Read-outs that look alike come from different tables or passages of the source.

For `CCCCc1oc2ccccc2c1C(=O)c1cc(I)c(OCCN(CC)CC)c(I)c1` [Amiodarone hydrochloride], the fold induction at 50 µM in the assay on E. coli (planktonic E. coli, 384-well, cutoff for positive-scoring molecules 3-fold increase, read-out: AK-based Prestwick Library Screening Results: E. coli (increase in extracellular AK activity)) turned out to be 0.7; in the assay on E. faecium (planktonic E. faecium, 384-well, cutoff for positive-scoring molecules 3-fold increase, read-out: AK-based Prestwick Library Screening Results: E. faecium (increase in extracellular AK activity)) it was 1.7; with P. aeruginosa (planktonic P. aeruginosa, 384-well, cutoff for positive-scoring molecules 3-fold increase, read-out: AK-based Prestwick Library Screening Results: P. aeruginosa (increase in extracellular AK activity)), 0.5; in assay [1] (planktonic S. aureus, 384-well, cutoff for positive-scoring molecules 3-fold increase, read-out: AK-based Prestwick Library Screening Results: S. aureus (increase in extracellular AK activity)), 0.7; in the assay on E. cloacae (planktonic E. cloacae, 384-well, cutoff for positive-scoring molecules 3-fold increase, read-out: AK-based Prestwick Library Screening Results: E. cloacae (increase in extracellular AK activity)) it was 0.5; in the assay on K. pneumoniae (planktonic K. pneumoniae, 384-well, cutoff for positive-scoring molecules 3-fold increase, read-out: AK-based Prestwick Library Screening Results: K. pneumoniae (increase in extracellular AK activity)), 0.6. Besides, in assay [2] (planktonic A. baumannii, 384-well, cutoff for positive-scoring molecules 3-fold increase, read-out: AK-based Prestwick Library Screening Results: A. baumannii (increase in extracellular AK activity)), the fold induction at 50 µM came to 2.2.

In the case of Guanadrel sulfate, the “AK-based Prestwick Library Screening Results, E. coli (fold increase in extracellular AK activity)” value in the assay on E. coli (planktonic, […]) came to 1.3. In addition, in the assay on E. faecium (planktonic, […]), the “AK-based Prestwick Library Screening Results, E. faecium (fold increase in extracellular AK activity)” value came to 1.0. Moreover, the “AK-based Prestwick Library Screening Results, P. aeruginosa (fold increase in extracellular AK activity)” value in the assay with P. aeruginosa (planktonic, […]) is on record as 1.1. For the same molecule, in assay [1] (planktonic, […]), the “AK-based Prestwick Library Screening Results, S. aureus (fold increase in extracellular AK activity)” value was determined as 1.2. Besides, the “AK-based Prestwick Library Screening Results, E. cloacae (fold increase in extracellular AK activity)” value with E. cloacae (planktonic, […]) worked out at 1.4. In addition, the “AK-based Prestwick Library Screening Results, K. pneumoniae (fold increase in extracellular AK activity)” value in the assay on K. pneumoniae (planktonic, […]) came out at 0.7. Also, the “AK-based Prestwick Library Screening Results, A. baumannii (fold increase in extracellular AK activity)” value in assay [2] (planktonic, […]) came to 1.0.

Consider `CC(=O)N1CCN(c2ccc(OCC3COC(Cn4ccnc4)(c4ccc(Cl)cc4Cl)O3)cc2)CC1` (stereo not drawn) [Ketoconazole], for which the fold induction at 50 µM in the assay with E. coli (planktonic, […], read-out: AK-based Prestwick Library Screening Results, E. coli (fold increase in extracellular AK activity)) was 1.3; with E. faecium (setting [3]), 0.9; in the assay with P. aeruginosa (setting [4]), 1.1; in assay [1] (setting [5]) it was 1.2; in the assay with E. cloacae (setting [6]), 1.5; with K. pneumoniae (setting [7]), 1.2. For the same molecule, in assay [2] (setting [8]), the fold induction at 50 µM turned out to be 1.5.

Take `CO[C@@]1(NC(=O)C(C(=O)O)c2ccc(O)cc2)C(=O)N2C(C(=O)O)=C(CSc3nnnn3C)CO[C@@H]21` (stereo partly drawn) [Moxalactam disodium salt]: the fold induction at 50 µM with E. coli (planktonic, cutoff for positive-scoring molecules 3-fold increase, read-out: AK-based Prestwick Library Screening Results, E. coli (fold increase in extracellular AK activity)) stood at 18.1; with E. faecium (planktonic, cutoff for positive-scoring molecules 3-fold increase, read-out: AK-based Prestwick Library Screening Results, E. faecium (fold increase in extracellular AK activity)), 1.3; in the assay with P. aeruginosa (planktonic, cutoff for positive-scoring molecules 3-fold increase, read-out: AK-based Prestwick Library Screening Results, P. aeruginosa (fold increase in extracellular AK activity)), 0.6; in assay [1] (planktonic, cutoff for positive-scoring molecules 3-fold increase, read-out: AK-based Prestwick Library Screening Results, S. aureus (fold increase in extracellular AK activity)) it was 4.4; in the assay with E. cloacae (planktonic, cutoff for positive-scoring molecules 3-fold increase, read-out: AK-based Prestwick Library Screening Results, E. cloacae (fold increase in extracellular AK activity)), 0.8; in the assay on K. pneumoniae (planktonic, cutoff for positive-scoring molecules 3-fold increase, read-out: AK-based Prestwick Library Screening Results, K. pneumoniae (fold increase in extracellular AK activity)), 3.9. The fold induction at 50 µM in assay [2] (planktonic, cutoff for positive-scoring molecules 3-fold increase, read-out: AK-based Prestwick Library Screening Results, A. baumannii (fold increase in extracellular AK activity)) was 0.6.

As to `NC(=O)NC1NC(=O)NC1=O` (stereo not drawn) [Allantoin], the fold induction at 50 µM in the assay on E. coli (setting [9]) is 0.4; with E. faecium (setting [10]), 0.7; in the assay with P. aeruginosa (setting [11]) it was 0.3; in assay [1] (setting [12]), 1.4; in the assay on E. cloacae (setting [13]), 0.3; in the assay with K. pneumoniae (setting [14]) it was 0.4. Besides, the fold induction at 50 µM in assay [2] (setting [15]) is 0.4.

Turning to `CC(N/C(=N\C#N)Nc1ccncc1)C(C)(C)C` (stereo not drawn) [Pinacidil], the fold induction at 50 µM came to 0.5 with E. coli (setting [9]); 0.9 in the assay with E. faecium (setting [10]); 0.5 in the assay with P. aeruginosa (setting [11]); 0.5 in assay [1] (setting [12]); 0.6 in the assay on E. cloacae (setting [13]); 0.5 with K. pneumoniae (setting [14]). For the same molecule, the fold induction at 50 µM in assay [2] (setting [15]) came out at 0.5.

For the molecule `COc1cc(CNC(=O)CCCC/C=C/C(C)C)ccc1O` [Capsaicin], the fold induction at 50 µM in the assay on E. coli (cutoff for positive-scoring molecules 3-fold increase, read-out: AK-based Prestwick Library Screening Results, E. coli (fold increase in extracellular AK activity)) was 1.3; with E. faecium (cutoff for positive-scoring molecules 3-fold increase, read-out: AK-based Prestwick Library Screening Results, E. faecium (fold increase in extracellular AK activity)), 1.1; with P. aeruginosa (cutoff for positive-scoring molecules 3-fold increase, read-out: AK-based Prestwick Library Screening Results, P. aeruginosa (fold increase in extracellular AK activity)), 1.1; in assay [1] (cutoff for positive-scoring molecules 3-fold increase, read-out: AK-based Prestwick Library Screening Results, S. aureus (fold increase in extracellular AK activity)), 1.2; in the assay with E. cloacae (cutoff for positive-scoring molecules 3-fold increase, read-out: AK-based Prestwick Library Screening Results, E. cloacae (fold increase in extracellular AK activity)), 1.5; in the assay with K. pneumoniae (cutoff for positive-scoring molecules 3-fold increase, read-out: AK-based Prestwick Library Screening Results, K. pneumoniae (fold increase in extracellular AK activity)), 1. In addition, in assay [2] (cutoff for positive-scoring molecules 3-fold increase, read-out: AK-based Prestwick Library Screening Results, A. baumannii (fold increase in extracellular AK activity)), the fold induction at 50 µM was 1.2.

On to `Cc1c(C)c2c(c(C)c1O)CCC(C)(C(=O)O)O2` (stereo not drawn) [Trolox], for which the fold induction at 50 µM with E. coli (planktonic, cutoff for positive 3-fold increase, read-out: AK-based Prestwick Library Screening Results, E. coli (fold increase in extracellular AK activity)) was found to be 1.1; in the assay on E. faecium (setting [3]) it was 1.1; with P. aeruginosa (setting [4]) it was 1.1; in assay [1] (setting [5]) it was 1.6; in the assay with E. cloacae (setting [6]), 1.6; with K. pneumoniae (setting [7]) it was 1.1. For the same molecule, in assay [2] (setting [8]), the fold induction at 50 µM was 1.1.

On to `COc1c2c(nc3ccccc13)OC(C(C)(O)CO)C2` (stereo not drawn) [Dubinidine], for which, in the assay on E. coli (planktonic E. coli, […]), the “AK-based Prestwick library screening result, E. coli (fold increase in extracellular AK activity)” value worked out at 1.4. Besides, the “AK-based Prestwick library screening result, E. faecium (fold increase in extracellular AK activity)” value in the assay on E. faecium (planktonic E. faecium, positive cutoff 3-fold increase) was determined as 1.0. The “AK-based Prestwick library screening result, P. aeruginosa (fold increase in extracellular AK activity)” value in the assay with P. aeruginosa (planktonic P. aeruginosa, positive cutoff 3-fold increase) was found to be 1.0. In addition, in assay [1] (planktonic S. aureus, positive cutoff 3-fold increase), the “AK-based Prestwick library screening result, S. aureus (fold increase in extracellular AK activity)” value amounted to 2.4. In the assay with E. cloacae (planktonic E. cloacae, positive cutoff 3-fold increase), the “AK-based Prestwick library screening result, E. cloacae (fold increase in extracellular AK activity)” value is given as 1.3. For the same molecule, in the assay on K. pneumoniae (planktonic K. pneumoniae, positive cutoff 3-fold increase), the “AK-based Prestwick library screening result, K. pneumoniae (fold increase in extracellular AK activity)” value is 0.9. In assay [2] (planktonic A. baumannii, positive cutoff 3-fold increase), the “AK-based Prestwick library screening result, A. baumannii (fold increase in extracellular AK activity)” value was determined as 1.1.

The record behind these values is patent US10004701B2, “Methods and compositions for treating infection” (UNIVERSITY OF ROCHESTER, priority 2012, dated 2018).
